Measured values as given in patent publication US11660293B2, “Substituted 2-azabicyclo[3.1.1]heptane and 2-azabicyclo[3.2.1]octane derivatives as orexin receptor antagonists” (Chronos Therapeutics Limited, priority 2017, dated 2023).

What was measured:
[1] = target: human Orexin type 2 receptors (Homo sapiens (Human), UniProt O43614); assay: Scintillation Proximity Assay (SPA) binding assay, [3H]EMPA displacement, HEK-hOX2 membranes; conditions: for OX2 pKi (SPA binding): Table 2, [3H]EMPA 2 nM
[2] = target: human Orexin type 1 receptors (Homo sapiens (Human), UniProt O43613); assay: Scintillation Proximity Assay (SPA) binding assay, [3H]SB-674042 displacement, CHO-hOX1 membranes; conditions: for OX1 pKi (SPA binding): Table 2, [3H]SB-674042 2 nM
Chain of human Orexin type 1 receptors (O43613 whole entry): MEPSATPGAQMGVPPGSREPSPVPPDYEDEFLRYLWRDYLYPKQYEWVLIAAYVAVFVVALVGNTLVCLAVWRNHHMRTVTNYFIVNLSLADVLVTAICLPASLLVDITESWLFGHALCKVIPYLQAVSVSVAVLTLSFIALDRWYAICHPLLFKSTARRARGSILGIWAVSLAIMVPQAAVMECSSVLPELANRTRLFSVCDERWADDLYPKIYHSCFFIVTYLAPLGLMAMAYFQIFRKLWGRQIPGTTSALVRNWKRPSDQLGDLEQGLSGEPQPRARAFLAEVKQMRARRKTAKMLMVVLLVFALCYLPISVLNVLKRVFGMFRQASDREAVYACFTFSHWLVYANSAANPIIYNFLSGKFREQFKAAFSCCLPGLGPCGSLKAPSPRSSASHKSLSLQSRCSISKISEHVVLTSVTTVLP

Chain of human Orexin type 2 receptors (O43614 whole entry): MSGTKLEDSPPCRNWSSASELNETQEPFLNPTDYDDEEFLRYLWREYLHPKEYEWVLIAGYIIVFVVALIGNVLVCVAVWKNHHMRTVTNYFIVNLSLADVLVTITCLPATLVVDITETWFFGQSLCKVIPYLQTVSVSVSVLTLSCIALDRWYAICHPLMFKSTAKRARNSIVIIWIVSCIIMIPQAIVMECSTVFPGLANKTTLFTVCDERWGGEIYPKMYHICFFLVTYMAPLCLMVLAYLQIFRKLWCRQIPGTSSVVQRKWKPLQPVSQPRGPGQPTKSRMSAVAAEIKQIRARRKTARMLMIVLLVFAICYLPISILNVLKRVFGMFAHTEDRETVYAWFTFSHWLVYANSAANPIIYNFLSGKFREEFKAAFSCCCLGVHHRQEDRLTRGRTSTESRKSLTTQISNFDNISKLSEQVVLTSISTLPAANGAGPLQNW

| Compound | Ki ([1]; Table 1, [3H]EMPA 2 nM, read-out: OX2 pKi (SPA binding) (converted)) [µM] | Ki ([2]; Table 1, [3H]SB-674042 2 nM, read-out: OX1 pKi (SPA binding) (converted)) [µM] | OX2 pKi (SPA binding) [1] | OX1 pKi (SPA binding) [2] |
| --- | --- | --- | --- | --- |
| Cc1ccc(-c2nccs2)c(C(=O)N2C3CC(C3)[C@H](C)C2COc2ccc(F)cc2)n1 (single isomer, unassigned) [Example 108, (3S,4S or 3R,4R)-3-[(4-fluorophenoxy)methyl]-4-methyl-2-[6-methyl-3-(1,3-thiazol-2-yl)pyridine-2-carbonyl]-2-azabicyclo[3.1.1]heptane] | 0.407 | 0.00324 | – | – |
| Cc1ccc(-n2nccn2)c(C(=O)N2C3CC(C3)[C@H](C)C2COc2ccc(Cl)cc2)n1 (single isomer, unassigned) [Example 119, (3S,4S) or (3R,4R)-3-[(4-chlorophenoxy)methyl]-4-methyl-2-[6-methyl-3-(2H-1,2,3-triazol-2-yl)pyridin-2-carbonyl]-2-azabicyclo[3.1.1]heptane] | – | – | 5.77 | 7.08 |
| Cc1ccc(-n2nccn2)c(C(=O)N2C3CC(C3)[C@H](C)C2COc2ccc(Cl)cc2)n1 (single isomer, unassigned) [Example 120, (3R,4R) or (3S,4S)-3-[(4-chlorophenoxy)methyl]-4-methyl-2-[6-methyl-3-(2H-1,2,3-triazol-2-yl)pyridine-2-carbonyl]-2-azabicyclo[3.1.1]heptane] | – | – | 5.98 | 8 |
| Cc1nc(C(=O)N2C3CC(C3)[C@H](C)C2COc2ccc(F)cc2)c(-c2ccccn2)s1 (single isomer, unassigned) [Example 124, (3S,4S) or (3R,4R)-3-[(4-fluorophenoxy)methyl]-4-methyl-2-[2-methyl-5-(pyridin-2-yl)-1,3-thiazole-4-carbonyl]-2-azabicyclo[3.1.1]heptane] | – | – | 6.3 | 8.43 |
| Cc1ccc(-n2nccn2)c(C(=O)N2C3CC(C3)[C@@H](C)C2CNc2nc3ccc(F)cc3s2)n1 (single isomer, unassigned) [Example 154, 6-fluoro-N-{[(3R,4S) or (3S,4R)-4-methyl-2-[6-methyl-3-(2H-1,2,3-triazol-2-yl)pyridine-2-carbonyl]-2-azabicyclo[3.1.1]heptan-3-yl]methyl}-1,3-benzothiazol-2-amine] | – | – | 6.23 | 9.06 |
| Cc1ccc(-n2nccn2)c(C(=O)N2C3CC(C3)[C@@H](C)C2CNc2cnc3ccccc3n2)n1 (single isomer, unassigned) [Example 159, N-{[(3S,4R) or (3R,4S)-4-methyl-2-[6-methyl-3-(2H-1,2,3-triazol-2-yl)pyridine-2-carbonyl]-2-azabicyclo[3.1.1]heptan-3-yl]methyl}quinoxalin-2-amine] | – | – | 4.59 | 6.84 |
| Cc1ccc(-n2nccn2)c(C(=O)N2C3CC(C3)[C@@H](C)C2CNc2cnc3ccccc3n2)n1 (single isomer, unassigned) [Example 160, N-{[(3R,4S) or (3S,4R)-4-methyl-2-[6-methyl-3-(2H-1,2,3-triazol-2-yl)pyridine-2-carbonyl]-2-azabicyclo[3.1.1]heptan-3-yl]methyl}quinoxalin-2-amine] | – | – | 5.98 | 8.68 |
| Cc1nc(C(=O)N2C3CC(C3)[C@@H](C)C2CNc2nc3ccc(F)cc3s2)c(-c2ncccn2)s1 (single isomer, unassigned) [Example 164, 6-fluoro-N-({(3R,4S) or (3S,4R)4-methyl-2-[2-methyl-5-(pyrimidin-2-yl)-1,3-thiazole-4-carbonyl]-2-azabicyclo[3.1.1]heptan-3-yl}methyl)-1,3-benzothiazol-2-amine] | – | – | 5.68 | 8.93 |
| Cc1ccc(-n2nccn2)c(C(=O)N2C3CC(C3)[C@@H](C)C2CNc2cnc(C(F)(F)F)cn2)n1 (single isomer, unassigned) [Example 166, N-{[(3S,4R) or (3R,4S)-4-methyl-2-[6-methyl-3-(2H-1,2,3-triazol-2-yl)pyridine-2-carbonyl]-2-azabicyclo[3.1.1]heptan-3-yl]methyl}-5-(trifluoromethyl)pyrazin-2-amine] | – | – | 4.29 | 6.99 |
| C[C@@H]1C2CC(C2)N(C(=O)c2cc(F)ccc2-n2nccn2)C1CNc1nc2ccc(F)cc2s1 (single isomer, unassigned) [Example 170, 6-fluoro-N-({(3R,4S) or (3S,4R)2-[5-fluoro-2-(2H-1,2,3-triazol-2-yl)benzoyl]-4-methyl-2-azabicyclo[3.1.1]heptan-3-yl}methyl)-1,3-benzothiazol-2-amine] | – | – | 5.99 | 8.86 |
| C[C@@H]1C2CC(C2)N(C(=O)c2cc(Cl)ccc2-n2nccn2)C1CNc1nc2ccc(F)cc2s1 (single isomer, unassigned) [Example 173, N-({(3R,4S) or (3S,4R)2-[5-chloro-2-(2H-1,2,3-triazol-2-yl)benzoyl]-4-methyl-2-azabicyclo[3.1.1]heptan-3-yl}methyl)-6-fluoro-1,3-benzothiazol-2-amine] | – | – | 6.53 | 9.36 |
| C[C@@H]1C2CC(C2)N(C(=O)c2cc(C#N)ccc2-n2nccn2)C1CNc1nc2ccc(F)cc2s1 (single isomer, unassigned) [Example 177, 3-[(3R,4S) or (3S,4R)-3-{[(6-fluoro-1,3-benzothiazol-2-yl)amino]methyl}-4-methyl-2-azabicyclo[3.1.1]heptane-2-carbonyl]-4-(2H-1,2,3-triazol-2-yl)benzonitrile] | – | – | 6.46 | 8.95 |
| Cc1ccc(-n2nccn2)c(C(=O)N2C3CC(C3)[C@@H](C)C2CNc2nc3ccccc3s2)n1 (single isomer, unassigned) [Example 180, N-{[(3R,4S) or (3S,4R)-4-methyl-2-[6-methyl-3-(2H-1,2,3-triazol-2-yl)pyridine-2-carbonyl]-2-azabicyclo[3.1.1]heptan-3-yl]methyl}-1,3-benzothiazol-2-amine] | – | – | 5.58 | 8.78 |
| C[C@@H]1C2CC(C2)N(C(=O)c2cc(F)ccc2-n2nccn2)C1CNc1cnc2ccccc2n1 (single isomer, unassigned) [Example 189, N-({(3R,4S) or (3S,4R)2-[5-fluoro-2-(2H-1,2,3-triazol-2-yl)benozyl]-4-methyl-2-azabicyclo[3.1.1]heptan-3-yl}methyl)quinoxalin-2-amine] | – | – | 5.92 | 8.51 |
| C[C@@H]1C2CC(C2)N(C(=O)c2cc(F)ccc2-n2nccn2)C1CNc1ccc(C(F)(F)F)cn1 (single isomer, unassigned) [Example 192, N-({(3R,4S) or (3S,4R)2-[5-fluoro-2-(2H-1,2,3-triazol-2-yl)benzoyl]-4-methyl-2-azabicyclo[3.1.1]heptan-3-yl}methyl)-5-(trifluoromethyl)pyridin-2-amine] | – | – | 5.19 | 8.13 |
| Cc1ccc(-n2nccn2)c(C(=O)N2C3CC(C3)[C@@H](C)C2CNc2ncc(C(F)(F)F)cn2)n1 (single isomer, unassigned) [Example 194, N-{[(3S,4R) or (3R,4S)-4-methyl-2-[6-methyl-3-(2H-1,2,3-triazol-2-yl)pyridine-2-carbonyl]-2-azabicyclo[3.1.1]heptan-3-yl]methyl}-5-(trifluoromethyl)pyrimidin-2-amine] | – | – | 4.66 | 7.51 |
| Cc1ccc(-n2nccn2)c(C(=O)N2C3CC(C3)[C@@H](C)C2CNc2cnc3cc(F)ccc3n2)n1 (single isomer, unassigned) [Example 200, 6-fluoro-N-{[(3R,4S) or (3S,4R)-4-methyl-2-[6-methyl-3-(2H-1,2,3-triazol-2-yl)pyridine-2-carbonyl]-2-azabicyclo[3.1.1]heptan-3-yl]methyl}quinoxalin-2-amine] | – | – | 6.37 | 8.24 |
| C[C@@H]1C2CC(C2)N(C(=O)c2cc(Cl)ccc2-n2nccn2)C1CNc1cnc2cc(F)ccc2n1 (single isomer, unassigned) [Example 209, N-{[(3R,4R) or (3S,4R)-2-[5-chloro-2-(2H-1,2,3-triazol-2-yl)benzoyl]-4-methyl-2-azabicyclo[3.1.1]heptan-3-yl]methyl}-6-fluoroquinoxalin-2-amine] | – | – | 6.8 | 8.74 |
| C[C@@H]1C2CC(C2)N(C(=O)c2nn(C)cc2-c2ccccc2)C1CNc1ccc(C(F)(F)F)cn1 (single isomer, unassigned) [Example 211, N-{[(3S,4R) or (3R,4R)-4-methyl-2-(1-methyl-4-phenyl-1H-pyrazole-3-carbonyl)-2-azabicyclo[3.1.1]heptan-3-yl]methyl}-5-(trifluoromethyl)pyridin-2-amine] | – | – | 6.25 | 8.91 |
| Cc1ccc(-n2nccn2)c(C(=O)N2C3CC(C3)[C@@H](C)C2CNc2nc3ccc(F)cc3o2)n1 (single isomer, unassigned) [Example 219, 6-fluoro-N-{[(3S,4R) or (3R,4S)-4-methyl-2-[6-methyl-3-(2H-1,2,3-triazol-2-yl)pyridine-2-carbonyl]-2-azabicyclo[3.1.1]heptan-3-yl]methyl}-1,3-benzoxazol-2-amine] | – | – | 5.79 | 8.71 |
| Cc1ccc(-n2nccn2)c(C(=O)N2C3CC(C3)[C@@H](C)C2CNc2nc3ccccc3o2)n1 (single isomer, unassigned) [Example 226, N-{[(3S,4R) or (3R,3S)-4-methyl-2-[6-methyl-3-(2H-1,2,3-triazol-2-yl)pyridine-2-carbonyl]-2-azabicyclo[3.1.1]heptan-3-yl]methyl}-1,3-benzoxazol-2-amine] | – | – | 5.39 | 8.46 |
| Cc1ccc(-n2nccn2)c(C(=O)N2C3CC(C3)[C@@H](C)C2CNc2nc3ccccc3o2)n1 (single isomer, unassigned) [Example 227, N-{[(3R,4S) or (3S,4R)-4-methyl-2-[6-methyl-3-(2H-1,2,3-triazol-2-yl)pyridine-2-carbonyl]-2-azabicyclo[3.1.1]heptan-3-yl]methyl}-1,3-benzoxazol-2-amine] | – | – | 4.9 | 7.11 |
